Measured values published in US20220152100A1, “METHODS FOR CONTROLLED ACTIVATION OR ELIMINATION OF THERAPEUTIC CELLS” (Bellicum Pharmaceuticals, Inc., priority 2014, published 2022).

Assays:
[1] = tested on: human CD3+/GFP+ T cells; test: SCID mouse-human xenograft: elimination of iCasp9M-transduced CTLs in tumors; format: in vivo, NOD/SCID mice; details: single dose 50 μg intraperitoneally, versus carrier, 3 days after
Method: Non-obese diabetic severe combined immunodeficient (NOD/SCID) mice, 6 to 8 weeks of age, were irradiated (250 rad) and injected subcutaneously in the right flank with 10×10^6 to 15×10^6 LCLs resuspended in Matrigel (BD Bioscience). Two weeks later mice bearing tumors that were approximately 0.5 cm in diameter were injected into the tail vein with a 1:1 mixture of nontransduced and iCasp9.I.GFPhigh-transduced EBV CTLs (total 15×10^6). At 4 to 6 hours prior and 3 days after CTL infusion, mice were injected intraperitoneally with recombinant hIL-2 (2000 U; Proleukin; Chiron). […] By FACS analysis, the number of GFP+ cells within the gated CD3^+ population was evaluated. […]
The function of iCasp9M also was evaluated in transduced EBV-CTLs in vivo. […] Three days after CID/carrier administration, tumors were analyzed for human CD3^+/GFP^+ cells. […]
The function of iCasp9M in vivo, was assayed. […] On day 3 after CTL administration, mice received either CID (50 μg AP20187; (black diamonds, n=6) or carrier only (black squares, n=5) and on day 6 the presence of human CD3+/GFP+ T cells in the tumors was analyzed. Human CD3+ T cells isolated from the tumors of a control group of mice that received only nontransduced CTLs (15×10^6 CTLs; n=4) were used as a negative control for the analysis of CD3+/GFP+ T cells within the tumors.

[2] = tested on: EBV-specific and CMV-specific T cells; test: Pentamer analysis of virus-specific T cells after dimerizer; format: cell-based, human; details: 10 nM after 4 days reactivation with allogeneic PBMC

Q: For `CC[C@H](C(=O)N1CCCC[C@H]1C(=O)O[C@H](CCc1ccc(OC)c(OC)c1)c1cccc(OCC(=O)NCC(CNC(=O)COc2cccc([C@@H](CCc3ccc(OC)c(OC)c3)OC(=O)[C@@H]3CCCCN3C(=O)[C@@H](CC)c3cc(OC)c(OC)c(OC)c3)c2)CN(C)C)c1)c1cc(OC)c(OC)c(OC)c1` [AP20187], which “reduction in the number of human CD3+/GFP+ T cells in tumors” value [1] is on record?
A: > 99%

Q: And the “effect on virus-specific T cells (HLA pentamers, EBV and CMV)” value [2]?
A: spares (and thereby enriches) viral reactive subpopulations
